According to US20150272952A1, “Combination” (GLAXOSMITHKLINE LLC, priority 2012, published 2015):
Where two headings read alike, the source gives them in different places.

Tests used:
KPL4 = experiment: Cell growth inhibition assay (Cell Titer Glo), KPL4; type: cell-based, Human; settings: for IC50: Homo sapiens, 72 h, KPL4, PIK3CA H1047R, 3 days, single agent; for sensitivity of the line to single agent: KPL-4, H1047R PIK3CA mutation
SK-BR-3 = experiment: Cell growth inhibition assay (Cell Titer Glo), SK-BR-3; type: cell-based; settings: Homo sapiens
Protocol: (§1) Human tumor cell lines from breast, BT474, BT474-J4, JIMT-1, MDA-MB-361, SK-BR-3, HCC1419, UACC893 and HCC202 in RPMI 1640 containing 10% FBS media; SK-BR-3-W13 and BT474-J4 in RPMI 1640 containing 10% FBS and 1 μM Compound A (in this assay, Compound A, was used in the form of the ditosylate monohydrate salt) media were kept in a humidified incubator at 37° C. in 95% air and 5% CO2 JIMT-1 is a line derived from a patient clinically resistant to trastuzumab (Herceptin®). SK-BR-3-W13 is a single cell clone isolated by a cloning cylinder after a single treatment of SK-BR-3 cells with 0.5 μM Compound A. BT474-J4 is a single cell clone derived from BT474 cells that were selected to grow in Compound A to a concentration of 3 μM.
(§2) All cells were cultured without Compound A for a minimum of 72 hours prior to cell plating. Cells were assayed in a 96-well tissue culture plate (NUNC 136102) of RPMI containing 10% FBS at 2,000 cells/well. Approximately 24 hours after plating, cells were exposed to ten, two-fold or three-fold serial dilutions of Compound A or the combination of the two agents at a constant molar to molar ratio of 10:1 Compound A to Compound B (in this assay, Compound B refers to N-{(1S)-2-amino-1-[(3,4-difluorophenyl)methyl]ethyl}-5-chloro-4-(4-chloro-1-methyl-1H-pyrazol-5-yl)-2-furancarboxamide and was used as the free or unsalted compound) in RPMI media containing 10% FBS. Cells were incubated in the presence of compounds for 3 days. ATP levels were determined by adding Cell Titer Glo® (Promega) according to the manufacturer's protocol. Briefly, Cell Titer Glo® was added each plate, incubated for 20 minutes then luminescent signal was read on the SpectraMax L plate reader with a 0.5 sec integration time.
(§3) Inhibition of cell growth was estimated after treatment with Compound A or the combination of Compound A and Compound B for three days and comparing the signal to cells treated with vehicle (DMSO). Cell growth was calculated relative to vehicle (DMSO) treated control wells. Concentration of compound that inhibits 50% of control cell growth (IC50) was interpolated using nonlinear regression with the equation, y=(A+(B−A)/(1+(C/x)̂D)))), where A is the minimum response (ymin), B is the maximum response (ymax), C is the inflection point of the curve (EC50) and D is the Hill coefficient. […]
(§4) In general, a CI value <0.9, between 0.9 and 1.1, or >1.1 indicates synergy, additivity and antagonism, respectively. In general, the smaller the CI number, the greater is the strength of synergy. […]

MDA-MB-361 = experiment: Cell growth inhibition assay (Cell Titer Glo), MDA-MB-361; type: cell-based, Human; settings: for IC50: Homo sapiens, 72 h, MDA-MB-361, PIK3CA E545K, 3 days, single agent; for sensitivity of the line to single agent: MDA-MB-361, E545K PIK3CA mutation
Protocol: as §1, §2, §3, §4

JIMT1 = experiment: Cell growth inhibition assay (Cell Titer Glo), JIMT1; type: cell-based; settings: Homo sapiens
Protocol: as §1, §2, §3, §4

UACC893 = experiment: Cell growth inhibition assay (Cell Titer Glo), UACC893; type: cell-based, Human; settings: for IC50: Homo sapiens, UACC-893, 72 h, UACC893, PIK3CA H1047R, 3 days, single agent; for sensitivity of the line to single agent: UACC893, H1047R PIK3CA mutation
Protocol: as §1, §2, §3, §4

BT474 = experiment: Cell growth inhibition assay (Cell Titer Glo), BT474; type: cell-based; settings: Homo sapiens
Protocol: as §1, §2, §3, §4

BT474-J4 = experiment: Cell growth inhibition assay (Cell Titer Glo), BT474-J4; type: cell-based, Human; settings: for IC50: Homo sapiens, 72 h, BT474-J4 (resistant to Compound A and trastuzumab), PIK3CA K111N, 3 days, single agent
Protocol: as §1, §2
Inhibition of cell growth was estimated after treatment with Compound A or the combination of Compound A and Compound B for three days and comparing the signal to cells treated with vehicle (DMSO). Cell growth was calculated relative to vehicle (DMSO) treated control wells. […]

HCC202 = experiment: Cell growth inhibition assay (Cell Titer Glo), HCC202; type: cell-based, Human; settings: for sensitivity of the line to single agent: HCC202, E545K PIK3CA mutation; for IC50: Homo sapiens, 72 h, HCC202, PIK3CA E545K, 3 days, single agent
Protocol: as §1, §2, §3, §4

HCC1419 = experiment: Cell growth inhibition assay (Cell Titer Glo), HCC1419; type: cell-based; settings: Homo sapiens
Protocol: as §1, §2, §3, §4

SK-BR3-W13 = experiment: Cell growth inhibition assay (Cell Titer Glo), SK-BR3-W13; type: cell-based; settings: Homo sapiens
Protocol: as §1, §2, §3, §4

[1] = 72 h, SK-BR-3, PIK3CA WT, 3 days, single agent, read-out: Single agent (IC50, μm)
[2] = SK-BR-3, single agent, bound stated, read-out: IC50
[3] = JIMT-1, 72 h, JIMT1 (resistant to Compound A and trastuzumab), PIK3CA C420R, 3 days, single agent, read-out: Single agent (IC50, μm)
[4] = JIMT-1, JIMT1, single agent, bound stated, read-out: IC50
[5] = BT-474, 72 h, BT474, PIK3CA K111N, 3 days, single agent, read-out: Single agent (IC50, μm)
[6] = BT-474, BT474, single agent, bound stated, read-out: IC50
[7] = 72 h, HCC1419, PIK3CA WT, 3 days, single agent, read-out: Single agent (IC50, μm)
[8] = HCC1419, single agent, bound stated, read-out: IC50
[9] = 72 h, SK-BR3-W13 (resistant to Compound A and trastuzumab), 3 days, single agent, read-out: Single agent (IC50, μm)
[10] = SK-BR-3-W13, single agent, bound stated, read-out: IC50

Row | IC50 (SK-BR-3; [1]) | IC50 (SK-BR-3; [2]) | IC50 (MDA-MB-361) | IC50 (BT474; [5]) | IC50 (BT474; [6]) | IC50 (BT474-J4) | IC50 (HCC202) | IC50 (HCC1419; [7]) | IC50 (HCC1419; [8]) | IC50 (SK-BR3-W13; [9]) | IC50 (SK-BR3-W13; [10]) | Structure (SMILES) | IC50 (KPL4) | sensitivity of the line to single agent (KPL4) | sensitivity of the line to single agent (MDA-MB-361) | IC50 (JIMT1; [3]) | IC50 (JIMT1; [4]) | IC50 (UACC893) | sensitivity of the line to single agent (UACC893) | sensitivity of the line to cell growth inhibition (BT474-J4; BT474-J4, single agent) | sensitivity of the line to single agent (HCC202)
1 | > 1000 nM | > 500 nM | 151 ± 22 nM | > 1000 nM | > 500 nM | 142 ± 47 nM | 919 ± 356 nM | 573 ± 154 nM | > 500 nM | > 1 µM | > 1 µM | Cn1ncc(Cl)c1-c1cc(C(=O)N[C@H](CN)Cc2ccc(F)c(F)c2)oc1Cl [Compound B, N-{(1S)-2-amino-1-[(3,4-difluorophenyl)methyl]ethyl}-5-chloro-4-(4-chloro-1-methyl-1H-pyrazol-5-yl)-2-furancarboxamide] | 19 ± 4 nM | sensitive | less sensitive | > 1 µM | > 1 µM | 30 ± 27 nM | sensitive | sensitive | less sensitive
2 | 196 ± 70 nM | < 200 nM | > 10000 nM | 171 ± 34 nM | < 200 nM | 5180 ± 2200 nM | 2408 ± 22 nM | 84 ± 34 nM | < 200 nM | 5.61 ± 1.05 µM | > 5 µM | CS(=O)(=O)CCNCc1ccc(-c2ccc3ncnc(Nc4ccc(OCc5cccc(F)c5)c(Cl)c4)c3c2)o1 [Compound A, N-{3-Chloro-4-[(3-fluorobenzyl)oxy]phenyl}-6-[5-({[2-(methanesulphonyl)ethyl]amino}methyl)-2-furyl]-4-quinazolinamine, reference compound] | 430 ± 159 nM | sensitive | less sensitive | 7.78 ± 1.27 µM | > 5 µM | 492 ± 498 nM | sensitive | – | less sensitive
